Results taken from US4629736A, “Fatty acid derivatives and process of producing them” (Yamanouchi Pharmaceutical Co., Ltd., priority 1983, dated 1986).

What was measured:
[1] = test system: Fibrin-clot (lysis by Urokinase); experiment: Fibrinolytic action (fibrin-clot lysis assay), clot lysis time relative to Urokinase alone; assay type: biochemical
Description: FIBRINOLYTIC ACTION (Fibrin-clot lysis assay)
Fibrinogen (1 mg/50 μl, made by Green Cross Corporation) and various amounts of the test compounds, were added to test tubes, followed to make a total volume of 850 μl with cold Tris-buffered saline (20 mM Tris-buffer, pH 7.4, containing 140 mM NaCl). To the solutions were added 100 μl of Urokinase solution (30 CTA unit/0.1 ml) and 50 μl of thrombin solution (2 NIH units/50 μl) to make final clot volume of 1 ml each in test tubes in an ice bath. The tubes were quickly shaken to mix the reagents well and immediately placed in a 37° C. water bath, and the clot lysis time was recorded. Test compounds were dissolved in physiological saline, except contrast one dissolved in physiological saline containing 10% cremophore and 0.15% ethanol. Thus, by measuring the time of clot lysis, the relative activity of the fibrinolytic action of the test compound to that of Urokinase using the system of Urokinase alone as the control was determined. The results of the pharmacological effect of the compounds of this invention are shown in Table 1 below together with that of 3-hexadecanoyloctadecanoyl-β-alanyl-L-phenylalanine having the formula [drawing 15] which is one of the compounds having the most excellent fibrinolytic action in known compounds.

Solubility in saline = assay type: physicochemical
Description: In particular, the compounds of this invention have been discovered after investigating the point of water solubility, which has never been attained in known acylpeptides. That is, the compounds of this invention have very improved water solubility, whereby sufficient pharmacological effect of the compounds can be expected and also the preparations of the compounds, such as the application to injections, and the like, can be easily performed. For example, the solubility of compound of Example 21 is more than 5 mg/ml saline.

mice = experiment: Acute toxicity, intravenous injection to mice; assay type: in vivo; conditions: mouse
Description: In addition, the acute toxicity of the compound in Example 21 was measured as follows.

[2] = at 1 × 10^-5 M, solvent physiological saline solution

For `CCCCCCCCCCOCCNC(=O)[C@H](CC(=O)O)NC(=O)COCCOCCCCCCCCCC` [Example 14, (S)-3-(3,6-dioxahexadecanamido)-3-(3-oxatridecylcarbamoyl)propionic acid], the “Fibrinolytic Action, maximum relative activity (%) with the activity of Urokinase alone being defined to 100%” value [1, 2] was 150%.

For `CCCCCCCCCCCCCCCC(CC(=O)N[C@@H](Cc1ccccc1)C(=O)O)OC(=O)COCCOCCOCCOCCCC` (stereo partly drawn) [Example 19, N-[3-(3,6,9,12-tetraoxahexadecanoyloxy)octadecanoyl]-L-phenylalnine], the “Fibrinolytic Action, maximum relative activity (%) with the activity of Urokinase alone being defined to 100%” value [1, 2] was 130-140%.

In the case of `CCCCCCCCCCCCCCCC(CC(=O)N[C@@H](Cc1ccccc1)C(=O)O)OC(=O)COCCOCCOCCCCCC` (stereo partly drawn) [Example 20, N-[3-(3,6,9-trioxapentadecanoyloxy)octadecanoyl]-L-phenylalanine], the “Fibrinolytic Action, maximum relative activity (%) with the activity of Urokinase alone being defined to 100%” value [1, 2] is reported as 130-150%.

In the case of `CCCCCCCCCCCCCC(CC(=O)N[C@@H](Cc1ccccc1)C(=O)O)OC(=O)COCCOCCCCCCCCCC` (stereo partly drawn) [Example 21, N-[3-(3,6-dioxahexadecanoyloxy)hexadecanoyl]-L-phenylalanine], the “Fibrinolytic Action, maximum relative activity (%) with the activity of Urokinase alone being defined to 100%” value ([1]; at 3 × 10^-6 M, solvent physiological saline solution) is reported as 150-160%, the solubility (Solubility in saline) is reported as “more than 5 mg/ml saline” and the “acute toxicity (dose without death)” value (mice) is reported as “higher than 200 mg/40 ml saline/kg”.

For `CCCCCCCCCCCCCCCC(CC(=O)N[C@@H](CO)C(=O)O)OC(=O)COCCOCCCCCCCCCC` (stereo partly drawn) [Example 22, N-[3-(3,6-dioxahexadecanoyloxy)octadecanoyl]-L-serine], the “Fibrinolytic Action, maximum relative activity (%) with the activity of Urokinase alone being defined to 100%” value ([1]; at 3 × 10^-5 M, solvent physiological saline solution) was 160%.

With `CCCCCCCCCCCCCCCC(=O)C(CCCCCCCCCCCCCCC)CC(=O)NCCC(=O)N[C@@H](Cc1ccccc1)C(=O)O` (stereo partly drawn) [Known compound, 3-hexadecanoyloctadecanoyl-β-alanyl-L-phenylalanine, reference compound] the “Fibrinolytic Action, maximum relative activity (%) with the activity of Urokinase alone being defined to 100%” value ([1]; at 1 × 10^-4 M, solvent Cremophore solution) was 140-150%.
